Test results as given in the supplement of paper PMC4862054.

Assays:
Conditions in all cases: incubation time: 72 h
CAL-85-1 [1] = test: drug sensitivity score (DSS), CellTox Green (DSS (AUC-based score)); higher = stronger drug effect (viability inhibition or cytotoxicity); extreme values may be limits of the assay
Procedure, shortened: (§1)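 In 384-well plates, compound was laid out at 5 concentrations in 10-fold steps over a 10,000-fold range specific to each compound, and breast cancer cell lines were seeded on top in 20 µl suspension for a 72 h incubation. CellTox Green fluorescence and then CellTiter-Glo luminescence were read, and each plate was normalised to 0.1 % DMSO and a positive kill control. The drug sensitivity score was calculated from the area under the fitted dose-response curve.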

BT-474 [2] = test: as above
Procedure, shortened: as §1

DU-4475 [3] = test: as above
Procedure, shortened: as §1

HCC1937 [4] = test: as above
Procedure, shortened: as §1

CAL-148 [5] = test: as above
Procedure, shortened: as §1

MFM-223 [6] = test: as above
Procedure, shortened: as §1

MDA-MB-453 [7] = test: as above
Procedure, shortened: as §1

CAL-120 [8] = test: as above
Procedure, shortened: as §1

MDA-MB-231 [9] = test: as above
Procedure, shortened: as §1

BT-549 [10] = test: as above
Procedure, shortened: as §1

HCC1599 [11] = test: as above
Procedure, shortened: as §1

CAL-51 [12] = test: as above
Procedure, shortened: as §1

MDA-MB-468 [13] = test: as above
Procedure, shortened: as §1

MCF-10A [14] = test: as above
Procedure, shortened: as §1

HDQ-P1 [15] = test: as above
Procedure, shortened: as §1

HCC1143 [16] = test: as above
Procedure, shortened: as §1

CAL-85-1 [17] = test: drug sensitivity score (DSS), CellTiter-Glo (DSS (AUC-based score)); higher = stronger drug effect (viability inhibition or cytotoxicity); extreme values may be limits of the assay
Procedure, shortened: as §1

Hs578T = test: as above
Procedure, shortened: as §1

BT-474 [18] = test: as above
Procedure, shortened: as §1

SK-BR-3 = test: as above
Procedure, shortened: as §1

DU-4475 [19] = test: as above
Procedure, shortened: as §1

HCC1937 [20] = test: as above
Procedure, shortened: as §1

CAL-148 [21] = test: as above
Procedure, shortened: as §1

MDA-MB-436 = test: as above
Procedure, shortened: as §1

MFM-223 [22] = test: as above
Procedure, shortened: as §1

MDA-MB-453 [23] = test: as above
Procedure, shortened: as §1

CAL-120 [24] = test: as above
Procedure, shortened: as §1

MDA-MB-231 [25] = test: as above
Procedure, shortened: as §1

BT-549 [26] = test: as above
Procedure, shortened: as §1

HCC1599 [27] = test: as above
Procedure, shortened: as §1

CAL-51 [28] = test: as above
Procedure, shortened: as §1

MDA-MB-468 [29] = test: as above
Procedure, shortened: as §1

MCF-10A [30] = test: as above
Procedure, shortened: as §1

HDQ-P1 [31] = test: as above
Procedure, shortened: as §1

HCC1143 [32] = test: as above
Procedure, shortened: as §1

c1ccc([C@H]2CN3CCSC3=N2)cc1 [Levamisole]
drug sensitivity score (CAL-85-1 [1]): 0
drug sensitivity score (BT-474 [2]): 0
drug sensitivity score (DU-4475 [3]): 0
drug sensitivity score (HCC1937 [4]): 0
drug sensitivity score (CAL-148 [5]): 0
drug sensitivity score (MFM-223 [6]): 0
drug sensitivity score (MDA-MB-453 [7]): 1.72
drug sensitivity score (CAL-120 [8]): 0
drug sensitivity score (MDA-MB-231 [9]): 1.47
drug sensitivity score (BT-549 [10]): 0
drug sensitivity score (HCC1599 [11]): 0
drug sensitivity score (CAL-51 [12]): 0
drug sensitivity score (MDA-MB-468 [13]): 0
drug sensitivity score (MCF-10A [14]): 0
drug sensitivity score (HDQ-P1 [15]): 2.62
drug sensitivity score (HCC1143 [16]): 0
drug sensitivity score (CAL-85-1 [17]): 0
drug sensitivity score (Hs578T): 0
drug sensitivity score (BT-474 [18]): 0
drug sensitivity score (SK-BR-3): 0
drug sensitivity score (DU-4475 [19]): 0
drug sensitivity score (HCC1937 [20]): 0
drug sensitivity score (CAL-148 [21]): 0
drug sensitivity score (MDA-MB-436): 0
drug sensitivity score (MFM-223 [22]): 0
drug sensitivity score (MDA-MB-453 [23]): 0
drug sensitivity score (CAL-120 [24]): 0
drug sensitivity score (MDA-MB-231 [25]): 0
drug sensitivity score (BT-549 [26]): 0
drug sensitivity score (HCC1599 [27]): 0
drug sensitivity score (CAL-51 [28]): 0
drug sensitivity score (MDA-MB-468 [29]): 0
drug sensitivity score (MCF-10A [30]): 0
drug sensitivity score (HDQ-P1 [31]): 0
drug sensitivity score (HCC1143 [32]): 0
